pIC50: −log10 of the molar value.
How the values were obtained:
MMP12 = MMP12 (Homo sapiens, UniProt P39900); test: MMP assay, determination of IC50 (fluorescence); format: biochemical; conditions: human MMP 0.5 nM, substrate 5 μM, 1 hour preincubation, pH 7.5
Method: (§1) The activities of a compound according to the present invention can be assessed by the following methods well-described in the art. Determination of IC50 values in MMP assays
(§2) Dose-response curves are prepared in DMSO/water solution (90/10, v/v) in 96-well plate format and stored at 4° C. up to 24 hours prior to analysis. In all steps poly-propylene pipette tips are changed avoiding cross-contamination or compound carry over. On the day of the assay, each compound is further diluted (1/33.33; 96-well plate format) in water containing 0.05% CHAPS to 3-times the desired assay concentration. In the assay for each compound, 11 concentrations ranging from 30 to 0.0003 μM are investigated (0.0003, 0.001, 0.003, 0.01, 0.03, 0.1, 0.3, 1, 3, 10, 30 μM). A three-fold concentrated MMP solution is prepared in two-fold concentrated assay buffer 100 mM Tris-HCl buffer, pH 7.5 containing 100 mM NaCl, 10 mM CaCl2, 10 μM ZnCl2, 0.05% Brij-35 and dispensed in 96-well Greiner plates. Similarly a three-fold concentrated substrate solution (15 μM) is prepared in 100 mM Tris-HCl buffer, pH 7.5 containing 100 mM NaCl, 10 mM CaCl2, 10 μM ZnCl2, 0.05% Brij-35 and dispensed in 96-well Greiner plates. Transfer of compounds, substrate and enzyme from 96-well plates to 384-well plates is made using either Cybi™well or Cybi™disk devices.
(§3) The assay procedure is the following, in each well, 10 μL water/CHAPS (±test compound) is added, followed by 10 μL human MMP solution (final assay concentration 0.5 nM). After 1 hour of incubation at room temperature the assay is started by addition of 10 μL substrate solution (final concentration 5 μM).
(§4) The reaction is allowed to proceed for 1 hours at ambient temperature (˜20-22° C.). At the end of the incubation the fluorescence is measured as described above.
(§5) The apparent inhibition constant, IC50, is determined from the plot of percentage of inhibition vs. inhibitor concentration using non-linear regression analysis software (XLfit, Vers. 3.0.5; ID Business Solution Ltd., Guildford, Surrey, UK).

MMP13 = MMP13 (Homo sapiens, UniProt P45452); test: MMP assay, determination of IC50 (fluorescence); format: biochemical; conditions: human MMP 0.5 nM, substrate 5 μM, 1 hour preincubation, pH 7.5
Method: as §1, §2, §3, §4, §5

MMP09 = MMP09 (Homo sapiens, UniProt P14780); test: MMP assay, determination of IC50 (fluorescence); format: biochemical; conditions: human MMP 0.5 nM, substrate 5 μM, 1 hour preincubation, pH 7.5
MMP09, sequence (P14780 94-707): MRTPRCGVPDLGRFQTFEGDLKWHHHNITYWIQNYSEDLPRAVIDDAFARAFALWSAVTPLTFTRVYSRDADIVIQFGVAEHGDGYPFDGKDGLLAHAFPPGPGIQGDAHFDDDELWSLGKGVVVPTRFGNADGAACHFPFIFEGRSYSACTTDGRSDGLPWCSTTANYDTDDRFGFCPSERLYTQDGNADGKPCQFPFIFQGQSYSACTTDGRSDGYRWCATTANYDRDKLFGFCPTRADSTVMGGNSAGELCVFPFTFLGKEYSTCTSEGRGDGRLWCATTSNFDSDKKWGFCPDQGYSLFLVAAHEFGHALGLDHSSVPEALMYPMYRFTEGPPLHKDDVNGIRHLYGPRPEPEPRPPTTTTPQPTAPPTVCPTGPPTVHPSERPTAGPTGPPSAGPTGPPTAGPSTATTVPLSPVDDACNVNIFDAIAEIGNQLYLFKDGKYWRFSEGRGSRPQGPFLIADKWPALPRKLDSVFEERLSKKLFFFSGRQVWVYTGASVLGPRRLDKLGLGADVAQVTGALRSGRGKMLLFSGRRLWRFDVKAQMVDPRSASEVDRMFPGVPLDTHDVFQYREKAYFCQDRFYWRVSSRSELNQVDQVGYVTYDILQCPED
Method: as §1, §2, §3, §4, §5

MMP02 = target: T1, MMP02 (Homo sapiens, UniProt P08253); test: MMP assay, determination of IC50 (fluorescence); format: biochemical; conditions: human MMP 0.5 nM, substrate 5 μM, 1 hour preincubation, pH 7.5
T1 sequence (P08253 110-660): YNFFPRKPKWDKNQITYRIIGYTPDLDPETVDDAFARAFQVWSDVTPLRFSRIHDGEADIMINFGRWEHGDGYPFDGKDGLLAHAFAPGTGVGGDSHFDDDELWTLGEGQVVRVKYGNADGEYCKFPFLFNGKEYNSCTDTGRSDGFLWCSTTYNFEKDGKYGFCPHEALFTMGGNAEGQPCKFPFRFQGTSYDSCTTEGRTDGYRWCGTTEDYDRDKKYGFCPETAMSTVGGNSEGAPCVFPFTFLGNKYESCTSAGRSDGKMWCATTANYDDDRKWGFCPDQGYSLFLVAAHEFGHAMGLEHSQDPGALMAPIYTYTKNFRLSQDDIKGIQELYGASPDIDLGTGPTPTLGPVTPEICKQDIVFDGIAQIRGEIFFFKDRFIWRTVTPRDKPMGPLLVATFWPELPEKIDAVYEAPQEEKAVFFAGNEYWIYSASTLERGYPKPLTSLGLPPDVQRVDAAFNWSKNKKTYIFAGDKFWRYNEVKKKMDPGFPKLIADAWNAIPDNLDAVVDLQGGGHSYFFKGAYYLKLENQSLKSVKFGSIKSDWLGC
Method: as §1, §2, §3, §4, §5

MMP12, sequence (P39900 106-470): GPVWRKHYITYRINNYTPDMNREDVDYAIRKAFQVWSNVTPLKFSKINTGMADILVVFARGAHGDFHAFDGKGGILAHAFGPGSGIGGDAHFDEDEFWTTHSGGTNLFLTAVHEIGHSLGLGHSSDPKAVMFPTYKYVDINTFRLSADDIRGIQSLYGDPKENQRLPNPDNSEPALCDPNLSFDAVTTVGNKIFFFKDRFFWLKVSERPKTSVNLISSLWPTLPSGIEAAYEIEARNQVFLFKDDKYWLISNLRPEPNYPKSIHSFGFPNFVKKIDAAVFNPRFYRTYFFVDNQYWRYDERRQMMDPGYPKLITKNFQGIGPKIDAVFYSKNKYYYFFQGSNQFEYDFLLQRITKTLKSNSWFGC

Compound	melting point [°C]	pIC50 (MMP12)	pIC50 (MMP13)	pIC50 (MMP09)	pIC50 (MMP02)
COc1cccc(S(=O)(=O)N(CCC(C)C)[C@@H](C(=O)NO)C(C)(C)C)c1 [Example 1, N-isoamyl-N-(3 Methoxyphenylsulfonyl)D-tert-leucine hydroxamic acid]	115.5 to 116.5				
CC(C)CCN([C@@H](C(=O)NO)C(C)(C)C)S(=O)(=O)c1cccc(Cl)c1 [Example 2-4]		7.76	7.02	6.14	5.77
COc1cccc(S(=O)(=O)N(CC(C)C)[C@@H](C(=O)NO)C(C)(C)C)c1 [Example 2-6]		7.76	6.60	5.82	4.95
CC(=O)Nc1cccc(S(=O)(=O)N(CCC(C)C)[C@@H](C(=O)NO)C(C)(C)C)c1 [Example 2-13]		7.46	5.94	4.76	4.99
CCOc1cccc(S(=O)(=O)N(CCC(C)C)[C@@H](C(=O)NO)C(C)C)c1 [Example 2-17]		6.65	5.61	4.90	4.55
COc1cccc(S(=O)(=O)N(Cc2ccccc2)[C@@H](C(=O)NO)C(C)(C)C)c1 [Example 2-23]		6.84	6.10	5.46	4.90
CC(C)CCN([C@@H](C(=O)NO)C(C)(C)C)S(=O)(=O)c1cccc(N)c1 [Example 2-28]		7.30	5.81	5.51	5.50
CC(C)CCN([C@@H](C(=O)NO)C(C)(C)C)S(=O)(=O)c1cccc(NC(=O)NC(C)C)c1 [Example 2-34]		7.19	5.92	5.16	5.43
CCCN([C@@H](C(=O)NO)C(C)(C)C)S(=O)(=O)c1cccc(C(=O)NC)c1 [Example 2-38]		6.19	4.59	< 4.52	< 4.52
CCCN([C@@H](C(=O)NO)C(C)(C)C)S(=O)(=O)c1cccc(C(=O)OC)c1 [Example 2-39]		6.40	5.18	< 4.52	< 4.52
COc1cccc(S(=O)(=O)N(CCCc2cccnc2)[C@@H](C(=O)NO)C(C)(C)C)c1 [Example 5]		8.26	7.15	6.40	5.11

Further compounds by rising pIC50 (MMP12), results first:

melting point [°C]	pIC50 (MMP12)	pIC50 (MMP13)	pIC50 (MMP09)	pIC50 (MMP02)	Compound
	6.52	5.31	4.64	≤ 4.40	COc1cccc(S(=O)(=O)N(CC(=O)N(C)C)[C@@H](C(=O)NO)C(C)(C)C)c1 [Example 2-27]
	6.65	6.30	5.11	4.86	CCc1cccc(S(=O)(=O)N(CCC(C)C)[C@@H](C(=O)NO)C(C)(C)C)c1 [Example 2-7]
	7.26	6.07	5.43	5.06	COC(=O)CN([C@@H](C(=O)NO)C(C)(C)C)S(=O)(=O)c1cccc(OC)c1 [Example 2-26]
	8.70	7.52	6.52	5.52	COc1cccc(S(=O)(=O)N(CCO)[C@@H](C(=O)NO)C(C)(C)C)c1 [Example 6]
	8.82	7.30	6.05	5.87	CCNC(=O)Nc1cccc(S(=O)(=O)N(CCCN2CCCCC2)[C@@H](C(=O)NO)C(C)(C)C)c1 [Example 4-4]

From US8314148B2, “Selective hydroxamate based MMP inhibitors” (Novartis AG, priority 2006, dated 2012)
